# Source: patent publication US20240261418A1, “SOS1 DEGRADING AGENT AND PREPARATION METHOD THEREFOR AND APPLICATION THEREOF” (SHANGHAI LEADINGTAC PHARMACEUTICAL CO. LTD., priority 2021, published 2024)
# Biological target: T1, SOS1 protein (Homo sapiens, UniProt Q07889)
# T1 sequence (Q07889 1-1333): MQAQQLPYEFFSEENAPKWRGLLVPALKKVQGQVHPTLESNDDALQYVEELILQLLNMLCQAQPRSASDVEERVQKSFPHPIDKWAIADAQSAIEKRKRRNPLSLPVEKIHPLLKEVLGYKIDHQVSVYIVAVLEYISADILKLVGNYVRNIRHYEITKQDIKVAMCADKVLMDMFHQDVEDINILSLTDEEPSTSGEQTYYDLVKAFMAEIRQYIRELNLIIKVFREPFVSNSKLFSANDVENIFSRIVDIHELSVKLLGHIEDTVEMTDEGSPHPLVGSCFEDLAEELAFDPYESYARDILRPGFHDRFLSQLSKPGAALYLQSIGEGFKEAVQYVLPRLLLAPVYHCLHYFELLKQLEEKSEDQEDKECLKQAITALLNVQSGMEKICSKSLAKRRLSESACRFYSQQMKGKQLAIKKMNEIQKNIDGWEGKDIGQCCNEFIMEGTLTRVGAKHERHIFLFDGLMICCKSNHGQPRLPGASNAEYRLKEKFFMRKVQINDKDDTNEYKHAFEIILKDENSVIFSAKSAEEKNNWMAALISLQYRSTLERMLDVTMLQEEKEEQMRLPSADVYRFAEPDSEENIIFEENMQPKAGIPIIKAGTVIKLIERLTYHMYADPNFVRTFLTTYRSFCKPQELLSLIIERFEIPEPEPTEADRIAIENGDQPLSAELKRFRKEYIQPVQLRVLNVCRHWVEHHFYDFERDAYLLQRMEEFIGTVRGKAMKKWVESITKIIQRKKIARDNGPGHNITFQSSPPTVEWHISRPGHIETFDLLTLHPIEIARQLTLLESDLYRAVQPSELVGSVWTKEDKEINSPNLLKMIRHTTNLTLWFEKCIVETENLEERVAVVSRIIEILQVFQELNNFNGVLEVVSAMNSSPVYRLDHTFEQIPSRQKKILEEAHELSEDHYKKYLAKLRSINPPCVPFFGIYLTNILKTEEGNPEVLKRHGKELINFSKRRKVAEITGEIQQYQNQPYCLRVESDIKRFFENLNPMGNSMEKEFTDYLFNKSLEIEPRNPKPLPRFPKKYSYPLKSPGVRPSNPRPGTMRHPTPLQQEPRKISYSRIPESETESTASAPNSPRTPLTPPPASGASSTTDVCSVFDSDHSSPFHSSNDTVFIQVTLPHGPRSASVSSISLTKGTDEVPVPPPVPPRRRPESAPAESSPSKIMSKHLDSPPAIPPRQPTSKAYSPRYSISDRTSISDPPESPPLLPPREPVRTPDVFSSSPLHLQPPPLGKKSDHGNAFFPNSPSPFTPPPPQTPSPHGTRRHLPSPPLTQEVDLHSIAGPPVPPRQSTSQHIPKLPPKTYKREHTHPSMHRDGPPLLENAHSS
# Test: SOS1 degradation assay (Western blot) in A-427 cells
# Format: cell-based
# Set-up: host or cells: NCI-H358, A-427, SW-620, DLD-1 (human cancer cell lines)
# Conditions: A-427 (KRAS G12D), 24 h; for DC50: read-out: A427 (G12D) DC50; for Dmax: read-out: A427 (G12D) Dmax
# Description: Test Example 2: SOS1 Degradation Assay
# The degradation of SOS1 by the compounds was investigated on KRAS G12C mutant human non-small cell lung cancer cells NCI-H358 (ATCC or Stem Cell Bank, Chinese Academy of Sciences), KRAS G12D mutant human lung cancer cells A-427 (ATCC), KRAS G12V mutant human colorectal adenocarcinoma cells SW-620 (ATCC), and KRAS G13D mutant human colorectal adenocarcinoma epithelial cells DLD-1 (ATCC). The specific procedures were as follows:
# 0.95 mL of cells were seeded into each well of a 24-well cell culture plate to achieve a cell density of 5×10^5 cells/well; the cell plate was incubated in an incubator at 37° C. with 5% CO2 overnight. Then 50 μL of the compound solution after dilution was added to each of the wells with the corresponding cells, so that the final concentration of the compound was in a range of 0.03-3000 nM. The final concentration of DMSO was 0.25%.
# After dosing, the cell plate was incubated in an incubator at 37° C. with 5% CO2 for 24 h. The cell culture medium in the 24-well plate was removed, and the plate was washed twice with 1×PBS. 180 μL of RIPA (strong) lysis buffer (Beyotime, P0013B) supplemented with 1 mM phenylmethylsulfonyl fluoride, a protease inhibitor mixture (Beyotime, P1008), and a protease phosphatase inhibitor mixture (Beyotime, P1045) was added to lyse adherent NCI-H358 cells at the bottom of the cell culture plate. After the plate was left to stand on ice for 30 min, the protein lysate in each well was transferred to a 1.5 mL centrifuge tube and centrifuged at 15000 g for 20 min at 4° C. […] The concentration of total protein in the cell lysate supernatant was determined using the BCA Protein Quantification Kit (Tiangen, PA115-02). […]
# The concentration of total protein in the cell lysate was determined by BCA. […] After the blocking, the PVDF membrane was incubated with an SOS1 primary antibody (Abcam, ab140621) at 4° C. overnight, washed with a TBST buffer (2.4 g of Tris, 8.8 g of NaCl, 1.5 mL of Tween 20, with pH adjusted to 7.4, with the volume brought to 1 L) for 30 min (10 min/time), incubated with a secondary antibody (Abcam, ab205718) at room temperature for 2 h, washed with a TBST buffer for 30 min (10 min/time), and finally incubated with Clarity Western ECL Substrate (BIO-RAD, 170-5061) for 5 min for luminescence and color development, and a chemiluminescence imaging system (Clinx, ChemiScope 6200 Touch) was used for color development and protein mapping. […] The gray correction value for each sample was calculated by the formula: gray correction value=(gray value of target protein/gray value of corresponding internal reference)×103. Then the degradation rate was calculated by comparing the gray correction value with the gray correction value of the control group. […]
Compound,DC50,Dmax
"COc1cc2nc(C)nc(N[C@H](C)c3cc(-c4c(Cl)cccc4CN(C)C)cs3)c2cc1[C@H]1CC[C@H](C(=O)N2CCN(CC3CCC4(CC3)CCN(C(=O)c3ccc(Cl)c(N5CCC(=O)NC5=O)c3)CC4)CC2)CC1 [Example 1, 1-(2-chloro-5-(9-((4-((1R,4R)-4-(4-(((R)-1-(4-(2-chloro-6-((dimethylamino)methyl)phenyl)thien-2-yl)ethyl)amino)-7-methoxy-2-methylquinazolin-6-yl)cyclohexane-1-carbonyl)piperazin-1-yl)methyl)-3-azaspiro[5.5]undecane-3-carbonyl)phenyl)dihydropyrimidine-2,4(1H,3H)-dione]",≤ 50 nM,80 to 100%
"COc1cc2nc(C)nc(N[C@H](C)c3cc(-c4c(Cl)cccc4CN(C)C)cs3)c2cc1[C@H]1CC[C@H](C(=O)N2CCC(CCOCC3CCN(C(=O)c4ccc(Cl)c(N5CCC(=O)NC5=O)c4)CC3)CC2)CC1 [Example 5, 1-(2-chloro-5-(4-((2-(1-((1R,4R)-4-(4-(((R)-1-(4-(2-chloro-6-((dimethylamino)methyl)phenyl)thien-2-yl)ethyl)amino)-7-methoxy-2-methylquinazolin-6-yl)cyclohexane-1-carbonyl)piperidin-4-yl)ethoxy)methyl)piperidine-1-carbonyl)phenyl)dihydropyrimidine-2,4(1H,3H)-dione]",≤ 50 nM,50 to 80%
